Test results: patent US20150176079A1, “MARKERS FOR CANCER” (OSLO UNIVERSITETSSYKEHUS HF, priority 2007, published 2015)

Experiments:
Type in all cases: cell-based
[1] = tested on: MAL promoter methylation in colon cancer cell lines; experiment: Methylation-specific PCR (MSP) of the MAL promoter in colon cancer cell lines after drug treatment; details: colon cancer cell lines HT29 and HCT15 (FIG. 9)
Protocol: Six colon cancer cell lines, HCT15, HT29, SW48, SW480, RKO and LS1034 were subjected to treatment with the demethylating drug 5-aza-2′deoxycytidine (1 μM for 72 h and 10 uM for 72 h), the histone deacetylase inhibitor trichostatin A (0.5 μM for 12 h) and a combination of both (1 μM 5-aza-2′deoxycytidine for 72 h, 0.5 μM trichostatin A added the last 12 h). DNA from primary tumours and normal mucosa samples was bisulphite treated as previously described. DNA from colon cancer cell lines was bisulphite treated using the EpiTect bisulphite kit (Qiagen Inc., Valencia, Calif., USA). The promoter methylation status of all genes was analyzed by methylation-specific polymerase chain reaction (MSP) using the HotStarTaq DNA polymerase (Qiagen). All results were confirmed with a second independent round of MSP. Human placental DNA (Sigma Chemical Co, St. Louis, Mo., USA) treated in vitro with SssI methyltransferase (New England Biolabs Inc., Beverly, Mass., USA) was used as a positive control for the methylated MSP reaction, whereas DNA from normal lymphocytes was used as a positive control for unmethylated alleles. Water was used as a negative control in both reactions.

[2] = tested on: SPG20 mRNA expression in colon cancer cell lines; experiment: Quantitative gene expression of SPG20 in colon cancer cell lines before and after epigenetic drug treatment; details: for increase in relative expression of SPG20, the two doses compared: low dose 1 uM versus high dose 10 uM, 72 h, six colon cancer cell lines; for relative expression of SPG20 (fold change, untreated sample as calibrator): six colon cancer cell lines HT29, SW48, HCT15, SW480, RKO, LS1034, AZA 1 or 10 uM 72 h, TSA 0.5 μM 12 h, combination 1 μM AZA 72 h + 0.5 μM TSA last 12 h
Protocol: (§1) Gene expression was measured in 6 colon cancer cell lines before and after treatment with epigenetic drugs. The relative expression levels of SPG20, INA and CNRIP1 in the colon cancer cell lines (n=6) was measured. […] The mean expression of ACTB and GUSB was used as endogenous control. TaqMan real-time fluorescence detection (Applied Biosystems, Foster city, CA) was used to quantify mRNA levels in the colon cancer cell lines, as previously described [Gibson et al. and Heid et al.]. cDNA was generated from five μg total RNA using a High-Capacity cDNA Archive kit (Applied Biosystems), including random primers according to the manufacturers' protocol. cDNA from the genes of interest (SPG20, INA and CNRIP1) and the endogenous controls (ACTB and GUSB) were amplified separately by the 7900HT Sequence Detection System (Applied Biosystems) following the protocol recommended by supplier. All samples were analyzed in triplicates. The expression levels were calculated as fold changes using the […] method and the untreated sample as a calibrator. In order to adjust for the possibly variable amounts of cDNA input in each PCR, we normalized the expression quantity of the target genes with the housekeeping genes ACTB and GUSB. Six colon cancer cell lines, HCT15, HT29, SW48, SW480, RKO and LS1034 were subjected to treatment with the demethylating drug 5-aza-2'deoxycytidine (1 μM for 72 h and 10 uM for 72 h), the histone deacetylase inhibitor trichostatin A (0.5 μM for 12 h) and a combination of both (1 μM 5-aza-2'deoxycytidine for 72 h, 0.5 μM trichostatin A added the last 12 h).

[3] = tested on: INA mRNA expression in colon cancer cell lines; experiment: Quantitative gene expression of INA in colon cancer cell lines before and after epigenetic drug treatment; details: for increase in relative expression of INA, the two doses compared: low dose 1 uM versus high dose 10 uM, 72 h, six colon cancer cell lines; for relative expression of INA (fold change, untreated sample as calibrator): six colon cancer cell lines HT29, SW48, HCT15, SW480, RKO, LS1034, AZA 1 or 10 uM 72 h, TSA 0.5 μM 12 h, combination 1 μM AZA 72 h + 0.5 μM TSA last 12 h
Protocol: as §1

[4] = tested on: MAL mRNA expression in colon cancer cell lines; experiment: Real-time quantitative gene expression of MAL in colon cancer cell lines after drug treatment
Protocol: Six colon cancer cell lines, HCT15, HT29, SW48, SW480, RKO and LS1034 were subjected to treatment with the demethylating drug 5-aza-2′deoxycytidine (1 μM for 72 h and 10 uM for 72 h), the histone deacetylase inhibitor trichostatin A (0.5 μM for 12 h) and a combination of both (1 μM 5-aza-2′deoxycytidine for 72 h, 0.5 μM trichostatin A added the last 12 h). Total RNA was extracted from cell lines (n=46), tumours (n=16), and normal tissue (n=3) using Trizol (Invitrogen, Carlsbad, Calif., USA) and the RNA concentration was determined using ND-1000 Nanodrop (NanoDrop Technologies, Wilmington, Del., USA). For each sample, total RNA was converted to cDNA using a High-Capacity cDNA Archive kit (Applied Biosystems), including random primers. MAL (Hs00242749_m1 and Hs00360838_m1) and the endogenous controls ACTB (Hs99999903_m1) and GUSB (Hs99999908_m1) were amplified separately in 96 well fast plates following the recommended protocol (Applied Biosystems), and the real time quantitative gene expression was measured by the 7900HT Sequence Detection System (Applied Biosystems). All samples were analyzed in triplicate, and the median value was used for data analysis. The human universal reference RNA (containing a mixture of RNA from ten different cell lines; Stratagene) was used to generate a standard curve, and the resulting quantitative expression levels of MAL were normalized against the mean value of the two endogenous controls.

[5] = tested on: CNRIP1 mRNA expression in colon cancer cell lines; experiment: Quantitative gene expression of CNRIP1 in colon cancer cell lines before and after epigenetic drug treatment; details: for increase in relative expression of CNRIP1, the two doses compared: low dose 1 uM versus high dose 10 uM, 72 h, six colon cancer cell lines; for relative expression of CNRIP1 (fold change, untreated sample as calibrator): six colon cancer cell lines HT29, SW48, HCT15, SW480, RKO, LS1034, AZA 1 or 10 uM 72 h, TSA 0.5 μM 12 h, combination 1 μM AZA 72 h + 0.5 μM TSA last 12 h
Protocol: as §1

[6] = listed as 5-aza-2′deoxycytidine
[7] = colon cancer cell lines HT29 and HCT15 (FIG. 9)

| SMILES | promoter methylation of MAL (MSP) [1] | increase in relative expression of SPG20, the two doses compared [2] | increase in relative expression of SPG20, the two doses compared [2, 6] | relative expression of SPG20 (fold change, untreated sample as calibrator) [2] | increase in relative expression of INA, the two doses compared [3] | increase in relative expression of INA, the two doses compared [3, 6] | relative expression of INA (fold change, untreated sample as calibrator) [3] | MAL mRNA expression ([4]; HCT15 cells) | MAL mRNA expression ([4]; HT29 cells) | MAL mRNA expression [4, 7] | increase in relative expression of CNRIP1, the two doses compared [5] | increase in relative expression of CNRIP1, the two doses compared [5, 6] | relative expression of CNRIP1 (fold change, untreated sample as calibrator) [5] |
| --- | --- | --- | --- | --- | --- | --- | --- | --- | --- | --- | --- | --- | --- |
| Nc1ncn([C@H]2C[C@H](O)[C@@H](CO)O2)c(=O)n1 [5-aza-2′-deoxycytidine] | Decreased promoter methylation | comparable effects | comparable increases | Up-regulated mRNA expression | comparable effects | comparable increases | Up-regulated mRNA expression | more moderate levels | high expression | up-regulated mRNA expression | comparable effects | comparable increases | Up-regulated mRNA expression |
| CC(/C=C/C(=O)NO)=C\[C@@H](C)C(=O)c1ccc(N(C)C)cc1 [trichostatin A] | – | – | – | did not increase the gene expression | – | – | did not increase the gene expression | – | – | did not increase MAL expression | – | – | did not increase the gene expression |
